Laboratory results from patent publication US5750555A, “Bis-indolyl maleinimide or indolopyrrolo carbazole containing an amino acid as PKC inhibitors” (Goedecke Aktiengesellschaft, priority 1992, dated 1998).
Where two headings read alike, the source gives them in different places. Where a SMILES comes first, the peptide text is derived from it. The star is where a group is joined. X1 = Cn1cc(C2=C(c3cn(CCC(=O)*)c4ccccc34)C(=O)NC2=O)c2ccccc21

Columns and labels:
[1] = target: protein kinase C (PKC); experiment: Enzyme test PKC with peptide substrate [Ser^25] PKC (19-31), phosphorus^32 phosphate incorporation; assay type: biochemical, rat
Protocol: The enzyme protein kinase C (PKC) is purified from rat brain. Its activity is determined by way of the incorporation of phosphorus ^32 -labelled phosphate into a synthetic peptide which is derived from the PKC "pseudosubstrate" sequence (arnino acids 19 to 31 of the PKC sequence with alanine in position 25 substituted by serine). A reaction batch of 200 μL contains the following components: 50 mM Tris HCl, pH 7.5, 5 mM MgCl2, 1 mM DTT, 4 μM free Ca^2+, 10 μM ATP, 1 μg phosphatidylserine, 0.2 μg 1,2-diolein, as well as 0.3 μg peptide substrate. The batch is preincubated for 4 minutes at 30° C. and the reaction then started by the addition of 5 nm PKC. After incubation for 5 minutes at 30° C., the reaction is stopped with 0.73% H3 PO4, and the sample then filtered over a nitrocellulose filter (0.1 μm pore size). The phosphate incorporation is determined by means of Cerenkov counting in a scintillation counter. […]

[2] = target: Myosin Light Chain Kinase; experiment: Inhibition of myosin light chain kinase (selectivity test); assay type: biochemical; details: Table 2; for IC50: Myosin Light Chain Kinase, read-out: Inhibition of the Protein Kinases IC50: MLC Kinase; for Ratio of IC50 MLC Kinase/IC50 C Kinase: selectivity ratio MLC Kinase over PKC
Protocol: The selectivity of these compounds with regard to other kinases, such as myosin light chain kinase, was tested on the basis of some examples. These values are set out in the following Table 2.

[3] = Table 1, PKC purified from rat brain, 10 μM ATP, pH 7.5, 30° C., 5 minutes, read-out: Inhibition IC50, Enzyme Test PKC With Peptide Substrate [Ser^25] PKC (19-31)
[4] = Table 2, PKC with peptide substrate [Ser^25] PKC (19-31), read-out: Inhibition of the Protein Kinases IC50: PKC

Compound | IC50 [1, 3] | IC50 [1, 4] | IC50 [2] | Ratio of IC50 MLC Kinase/IC50 C Kinase [2]
C[C@H](N)C(=O)NCCCCCCCCn1cc(C2=C(c3cn(C)c4ccccc34)C(=O)NC2=O)c2ccccc21 [Example 2f, 2-[(1-Methyl)-1H-indol-3-yl]-3-[1-(9-L-alanylaminooctyl)-1H-indol-3-yl)-maleinimide] | 330 nM | – | – | –
C[C@H](N)C(=O)NCCCCn1c2ccccc2c2c3c(c4c5ccccc5n(C)c4c21)C(=O)NC3=O [Example 10, 12-[2-(4-L-Alanyl)-aminobutyl]-6,7,12,13-tetrahydro-13-methyl-5,7-dioxo-5H-indolo[2,3-a]pyrrolo[3,4-c]-carbazole] | 9.6 nM | – | – | –
Cn1cc(C2=C(c3cn(CCCN)c4ccccc34)C(=O)NC2=O)c2ccccc21 [A, 3[1(3-aminopropyl)-3-indolyl)-4-(1-methyl-3-indolyl)-1H-pyrrole-2,5-dione, reference compound] | – | 130 nM | 1300 nM | 10
C[C@@H](N)C(=O)NCCCn1cc(C2=C(c3cn(C)c4ccccc34)C(=O)NC2=O)c2ccccc21 [Example 2, 2-[(1-Methyl)-1H-indol-3-yl)-3-[1-(3-D-alanylaminopropyl)-1H-indol-3-yl]-maleinimide] | 28 nM | – | – | –
C[C@H](NC(=O)CCn1cc(C2=C(c3cn(C)c4ccccc34)C(=O)NC2=O)c2ccccc21)C(=O)O [Example 5, 3-[3-[4-(1-Methylindol-3-yl)-1H-pyrrole-2,5-dion-3-yl]-indol-1-yl)-propionyl-L-alanine] | 580 nM | – | – | –
C[C@H](NC(=O)CCn1cc(C2=C(c3cn(C)c4ccccc34)C(=O)NC2=O)c2ccccc21)C(=O)NCC(=O)N[C@@H](CCCCN)C(N)=O [Example 7, 3-[3-[4-(1-Methylindol-3-yl)-1H-pyrrole-2,5-dion-3-yl]-indol-1-yl)-propionyl-L-alanylglycyl-L-lysinamide] | 230 nM | – | – | –
Cn1cc(C2=C(c3cn(CCCCCCCCCNC(=O)[C@@H](N)CO)c4ccccc34)C(=O)NC2=O)c2ccccc21 [Example 2e, 2-[(1-Methyl)-1H-indol-3-yl]-3-[1-(9-L-serylaminononyl)-1H-indol-3-yl]-maleinimide] | > 1000 nM | – | – | –
C[C@H](N)C(=O)NCCCCCCCCCn1cc(C2=C(c3cn(C)c4ccccc34)C(=O)NC2=O)c2ccccc21 [Example 2d, 2-[(l-Methyl)-1H-indol-3-yl]-3-[1-(9-L-alanylaminononyl)-1H-indol-3-yl)-maleinimide] | > 1000 nM | – | – | –
C[C@H](N)C(=O)NCCCn1c2ccccc2c2c3c(c4c5ccccc5n(C)c4c21)C(=O)NC3=O [Example 8, 12-[2-(3-L-Alanyl)-aminopropyl)-6,7,12,13-tetrahydro-13-methyl-5,7-dioxo-5H-indolo[2,3-a]pyrrolo[3,4-c]-carbazole] | 38 nM | – | – | –
C[C@H](NC(=O)CNC(=O)CNC(=O)CCn1cc(C2=C(c3cn(C)c4ccccc34)C(=O)NC2=O)c2ccccc21)C(N)=O [Example 7b, 3-[3-[4-(1-methylindol-3-yl)-1H-pyrrole-2,5-dion-3-yl]-indol-1-yl)-propionylglycylglycyl-L-alaninamide] | > 100 nM | – | – | –
Cn1cc(C2=C(c3cn(CCCNC(=O)[C@@H](N)CO)c4ccccc34)C(=O)NC2=O)c2ccccc21 [Example 1, 2-[(1-Methyl)-1H-indol-3-yl]-3-(1-(3-L-serylaminopropyl)-1H-indol-3-yl)-maleinimide] | 14 nM | 14 nM | 4600 nM | 328
C[C@H](N)C(=O)NCCCCCn1cc(C2=C(c3cn(C)c4ccccc34)C(=O)NC2=O)c2ccccc21 [Example 2c, 2-[(1-Methyl)-1H-indol-3-yl]-3-[1-(5-L-alanylaminopentyl)-1H-indol-3-yl]-maleinimide] | > 100 nM | – | – | –
Cn1cc(C2=C(c3cn(CCC(=O)NCC(=O)NCC(=O)N[C@@H](CO)C(N)=O)c4ccccc34)C(=O)NC2=O)c2ccccc21 [Example 7c, 3-[3-[4-(1-methylindol-3-yl)-1H-pyrrole-3,5-dion-3-yl]-indol-1-yl]-propionylglycylglycyl-L-serylamide] | 200 nM | – | – | –
C[C@H](N)C(=O)NCCC(=O)NCCCn1cc(C2=C(c3cn(C)c4ccccc34)C(=O)NC2=O)c2ccccc21 [Example 4a, 2-[(1-Methyl)-1H-indol-3-yl]-3-[1-[3-(L-alanyl-β-alanyl)-aminopropyl]-1H-indol-3-yl)-maleinimide] | 18 nM | – | – | –
12-[2-(L-Alanyl-L-arginyl)-aminopropyl]-6,7,12,13-tetrahydro-13-methyl-5,7- dioxo-5H-indolo[2,3-a]pyrrolo-[3,4-c]carbazole [Example 9] | 190 nM | – | – | –
C[C@H](NC(=O)CNC(=O)[C@H](CO)NC(=O)CCn1cc(C2=C(c3cn(C)c4ccccc34)C(=O)NC2=O)c2ccccc21)C(N)=O [Example 7d, 3-[3-[4-(1-methylindol-3-yl)-1H-pyrrole-2,5-dion-3-yl)-indol-1-yl)-propionyl-L-serylglycyl-L-alaninamide] | > 1000 nM | – | – | –
C[C@H](NC(=O)[C@H](Cc1ccccc1)NC(=O)[C@H](CCCNC(=N)N)NC(=O)[C@H](CC(N)=O)NC(=O)[C@H](CCCCN)NC(=O)CCn1cc(C2=C(c3cn(C)c4ccccc34)C(=O)NC2=O)c2ccccc21)C(N)=O [Example 7a, 3-[3-[4-(1-methylindol-3-yl)-1H-pyrrole-2,5-dion-3-yl]-indol-1-yl)-propionyl-L-lysyl-L-asparaginyl-L-arginyl-L-phenylalanyl-L-alaninamide] (X1-KNRFA-NH2) | > 100 nM | – | – | –
Cn1cc(C2=C(c3cn(CCCCNC(=O)[C@@H](N)CCCNC(=N)N)c4ccccc34)C(=O)NC2=O)c2ccccc21 [Example 2b, 2-[(1-Methyl)-1H-indol-3-yl]-3-[1-(4-L-arginylaminobutyl)-1H-indol-3-yl]-maleinimide] | 220 nM | – | – | –
C[C@H](N)C(=O)NCCCCCn1c2ccccc2c2c3c(c4c5ccccc5n(C)c4c21)C(=O)NC3=O [Example 10a, 12-[2-(5-L-alanyl)-aminopentyl]-6,7,12,13-tetrahydro-13-methyl-5,7-dioxo-5H-indolo[2,3-a]pyrrolo-[3,4-c]carbazole] | 53 nM | – | – | –
Cn1cc(C2=C(c3cn(CCCNC(=O)CCN)c4ccccc34)C(=O)NC2=O)c2ccccc21 [Example 1b, 2-[(1-Methyl)-1H-indol-3-yl]-3-[1-(3-β-alanylaminopropyl)-1H-indol-3-yl]-maleinimide] | 23 nM | 23 nM | 2400 nM | 104
2-[(1-Methyl)-1H-indol-3-yl]-3-[1-(3-β-alanylamino-propyl)-1H-indol-3-yl]-maleinimide [Example 1a] | 6.3 nM | 6.3 nM | 1900 nM | 302
Cn1cc(C2=C(c3cn(CCCNC(=O)CCCCNC(=O)[C@@H](N)CO)c4ccccc34)C(=O)NC2=O)c2ccccc21 [Example 3, 2-[(1-Methyl)-1H-indol-3-yl]-3-[1-[3-(5-L-serylaminopentanoyl)-aminopropyl)-1H-indol-3-yl)-maleinimide] | 61 nM | – | – | –
C[C@H](N)C(=O)NCC(=O)NCCCn1cc(C2=C(c3cn(C)c4ccccc34)C(=O)NC2=O)c2ccccc21 [Example 4, 2-[(1-Methyl)-1H-indol-3-yl)-3-[1-[3-(L-alanylglycyl)-aminopropyl]-1H-indol-3-yl]] | 36 nM | – | – | –
C[C@H](N)C(=O)NCCCCn1cc(C2=C(c3cn(C)c4ccccc34)C(=O)NC2=O)c2ccccc21 [Example 2a, 2-[(1-Methyl)-1H-indol-3-yl]-3-[1-(4-L-alanylaminobutylyl)-1H-indol-3-yl)-maleinimide] | 25 nM | – | – | –
